Experimental findings from patent publication US20150239889A1, “PYRAZOLOPYRIMIDINE COMPOUND” (MITSUBISHI TANABE PHARMA CORPORATION, priority 2012, published 2015) are described below.

The structures appear in SMILES notation.

Assay [1] concerns the target T1, human HIF-PHD3 (Homo sapiens, UniProt Q9H6Z9).
T1 construct: purchased CrystalGenomics Ltd
As to the kind of experiment: HIF-PHD inhibition assay (fluorescence polarization), human HIF-PHD3. As to conditions: 2-oxoglutaric acid 166 μmol/L. Type of assay: biochemical. In short, it runs like this:
(§1)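 FP readout; enzyme activity = mP post-enzyme − mP pre-enzyme. FAM-labelled probe, ACA spacer.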

The target in assay [2] is T2, human HIF-PHD2 (Homo sapiens, UniProt Q9GZT9).
T2 construct: purchased CrystalGenomics Ltd
T2 sequence (Q9GZT9 2-426 limits assumed): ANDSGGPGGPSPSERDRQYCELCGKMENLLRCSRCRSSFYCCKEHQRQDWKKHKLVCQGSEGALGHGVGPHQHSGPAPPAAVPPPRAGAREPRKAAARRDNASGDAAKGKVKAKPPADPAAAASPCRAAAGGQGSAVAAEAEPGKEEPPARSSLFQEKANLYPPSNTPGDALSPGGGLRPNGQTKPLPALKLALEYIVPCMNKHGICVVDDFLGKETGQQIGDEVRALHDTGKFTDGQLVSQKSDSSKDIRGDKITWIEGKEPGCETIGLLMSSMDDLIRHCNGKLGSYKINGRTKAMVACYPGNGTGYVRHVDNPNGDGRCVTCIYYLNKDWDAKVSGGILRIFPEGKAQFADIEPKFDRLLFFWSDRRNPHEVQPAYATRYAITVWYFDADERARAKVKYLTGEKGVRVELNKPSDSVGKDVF
The experiment in a line: HIF-PHD inhibition assay (fluorescence polarization), human HIF-PHD2. It counts as biochemical. As to conditions: 2-oxoglutaric acid 3.33 μmol/L. In short, it runs like this:
as §1

T1 sequence (Q9H6Z9 whole entry): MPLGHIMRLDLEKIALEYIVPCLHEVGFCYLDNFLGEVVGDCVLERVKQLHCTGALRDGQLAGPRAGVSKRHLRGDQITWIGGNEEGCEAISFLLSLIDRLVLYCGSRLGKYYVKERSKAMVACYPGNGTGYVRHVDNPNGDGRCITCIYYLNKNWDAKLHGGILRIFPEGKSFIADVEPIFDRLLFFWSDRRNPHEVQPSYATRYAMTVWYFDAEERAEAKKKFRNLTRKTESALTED

As to `O=C(O)c1cnn(-c2nc(O)c3c(cnn3Cc3ccc(-c4ccc(F)cc4F)cc3F)n2)c1` [Example 82], the IC50 turned out to be 130 nM in assay [1] and 32 nM in assay [2].
The corresponding values for `C[C@@H](c1ccc(F)cc1Cl)n1cc2nc(-n3cc(C(=O)O)cn3)nc(O)c2n1` [Example 505] are 440 nM and 51 nM.
Taken in the same sequence, the figures for `O=C(O)c1cnn(-c2nc(O)c3c(cnn3C3CCC(F)(F)CC3)n2)c1` [Example 392] were 1300 nM and 42 nM.
The corresponding values for `C[C@@H](c1cccc(F)c1)n1ncc2nc(-n3cc(C(=O)O)cn3)nc(O)c21` [Example 254] are 510 nM and 97 nM.
For the molecule `Cc1cc(C(C)n2ncc3nc(-n4cc(C(=O)O)cn4)nc(O)c32)ccc1F` (single isomer, unassigned) [Example 302], the results for the IC50 in assay [1] and in assay [2] were 570 nM and 50 nM, respectively.
Taken in the same sequence, the figures for `CC(C)c1nn(CC2CCCCC2)c2c(O)nc(-n3cc(C(=O)O)cn3)nc12` [Example 233] were 2800 nM and 120 nM.
The corresponding values for `C[C@H](c1ccc(Cl)c(F)c1)n1ncc2nc(-n3cc(C(=O)O)cn3)nc(O)c21` [Example 270] are 440 nM and 48 nM.
Taken in the same sequence, the figures for `CC(c1cc(Cl)c(Cl)s1)n1ncc2nc(-n3cc(C(=O)O)cn3)nc(O)c21` (stereo not drawn) [Example 319] were 520 nM and 85 nM.
Regarding `CC[C@@H](c1cccc(Cl)c1)n1ncc2nc(-n3cc(C(=O)O)cn3)nc(O)c21` [Example 343], the IC50 in assay [1] stood at 610 nM; in assay [2] it was 92 nM.
The corresponding values for `Cc1nn(CC2CCC(F)(F)CC2)c2c(O)nc(-n3cc(C(=O)O)cn3)nc12` [Example 475] are 270 nM and 34 nM.
The corresponding values for `Cn1nc(-c2ccccc2)c2nc(-n3cc(C(=O)O)cn3)nc(O)c21` [Example 502] are 1200 nM and over 300 nM.
Taken in the same sequence, the figures for `CCC(c1ccc(F)c(F)c1)n1ncc2nc(-n3cc(C(=O)O)cn3)nc(O)c21` (single isomer, unassigned) [Example 331] were 420 nM and 19 nM.
Regarding `O=C(O)c1cnn(-c2nc(O)c3c(cnn3C(c3ccc(Cl)cc3)C3CC3)n2)c1` (single isomer, unassigned) [Example 365], the figures for the IC50 in assay [1] and in assay [2] were 460 nM and 12 nM, respectively.
Taken in the same sequence, the figures for `CC[C@H]1CC[C@H](n2ncc3nc(-n4cc(C(=O)O)cn4)nc(O)c32)CC1` [Example 388] were 510 nM and 47 nM.
The corresponding values for `Cc1nn([C@@H](C)c2ccc(F)c(F)c2)c2c(O)nc(-n3cc(C(=O)O)cn3)nc12` [Example 450] are 580 nM and 64 nM.
Taken in the same sequence, the figures for `O=C(O)c1cnn(-c2nc(O)c3c(cnn3C(c3ccc(F)cc3)C3CC3)n2)c1` (single isomer, unassigned) [Example 367] were 350 nM and 34 nM.
As for `CC(C)C(c1cccc(C(F)(F)F)c1)n1ncc2nc(-n3cc(C(=O)O)cn3)nc(O)c21` (single isomer, unassigned) [Example 363], the IC50 is 1300 nM in assay [1] and 57 nM in assay [2].
Taken in the same sequence, the figures for `CC1CCN(c2ccc(C(C)n3ncc4nc(-n5cc(C(=O)O)cn5)nc(O)c43)cc2)CC1` (racemic) [Example 425] were 390 nM and 48 nM.
For the molecule `CCC(c1cccc(C(F)(F)F)c1)n1ncc2nc(-n3cc(C(=O)O)cn3)nc(O)c21` (stereo not drawn) [Example 341], the half-maximal inhibitory concentration (IC50) is 790 nM in assay [1] and 52 nM in assay [2].
The corresponding values for `CC1(C)CCCC(n2ncc3nc(-n4cc(C(=O)O)cn4)nc(O)c32)C1` (stereo not drawn) [Example 411] are 550 nM and 40 nM.
Taken in the same sequence, the figures for `CC[C@@H](c1ccc(Cl)c(Cl)c1)n1nc(C)c2nc(-n3cc(C(=O)O)cn3)nc(O)c21` [Example 455] were 790 nM and 65 nM.
The corresponding values for `C[C@@H](c1ccc(F)cc1)n1nc(C2CC2)c2nc(-n3cc(C(=O)O)cn3)nc(O)c21` [Example 457] are 710 nM and 110 nM.
Consider `O=C(O)c1cnn(-c2nc(O)c3c(cnn3CC3(c4ccccc4)CCCC3)n2)c1` [Example 123], for which the values for the IC50 in assay [1] and in assay [2] were 580 nM and 130 nM, respectively.
With `COc1cc(-c2ccccc2F)ccc1Cn1ncc2nc(-n3cc(C(=O)O)cn3)nc(O)c21` [Example 90], the IC50 was 36 nM in assay [1] and 20 nM in assay [2].
Taken in the same sequence, the figures for `C[C@@H](c1cc(Cl)ccc1F)n1ncc2nc(-n3cc(C(=O)O)cn3)nc(O)c21` [Example 282] were 1400 nM and 77 nM.
Taken in the same sequence, the figures for `CC[C@@H](c1ccc(F)c(C)c1)n1ncc2nc(-n3cc(C(=O)O)cn3)nc(O)c21` [Example 344] were 530 nM and 25 nM.
Taken in the same sequence, the figures for `C[C@@H](c1cccc(Cl)c1F)n1ncc2nc(-n3cc(C(=O)O)cn3)nc(O)c21` [Example 279] were 560 nM and 120 nM.
Consider `C[C@@H](c1cc(Cl)cc(C(F)(F)F)c1)n1ncc2nc(-n3cc(C(=O)O)cn3)nc(O)c21` [Example 269], for which the IC50 in assay [1] is 370 nM; in assay [2], 42 nM.
Turning to `CCC(C)(C)Cn1ncc2nc(-n3cc(C(=O)O)cn3)nc(O)c21` [Example 492], the IC50 in assay [1] was determined as 440 nM; in assay [2] it was 110 nM.
Taken in the same sequence, the figures for `C[C@@H](c1ccc(F)c(Cl)c1)n1nc(C2CC2)c2nc(-n3cc(C(=O)O)cn3)nc(O)c21` [Example 462] were 990 nM and 81 nM.
The corresponding values for `CCC(c1cc(F)cc(Cl)c1)n1ncc2nc(-n3cc(C(=O)O)cn3)nc(O)c21` (single isomer, unassigned) [Example 340] are 300 nM and 16 nM.
The corresponding values for `CCC(c1ccc(F)c(Cl)c1)n1ncc2nc(-n3cc(C(=O)O)cn3)nc(O)c21` (stereo not drawn) [Example 337] are 420 nM and 32 nM.
As for `Cn1nc(C2CCCCC2)c2nc(-n3cc(C(=O)O)cn3)nc(O)c21` [Example 501], the IC50 was over 3000 nM in assay [1] and over 300 nM in assay [2].
The corresponding values for `Cc1ccc(C(F)(F)F)cc1[C@@H](C)n1ncc2nc(-n3cc(C(=O)O)cn3)nc(O)c21` [Example 285] are 870 nM and 76 nM.
As to `CC[C@@H](c1ccc(C)c(F)c1)n1ncc2nc(-n3cc(C(=O)O)cn3)nc(O)c21` [Example 345], the results for the IC50 in assay [1] and in assay [2] were 830 nM and 53 nM, respectively.
The corresponding values for `CCC(c1cc(F)cc(Cl)c1)n1ncc2nc(-n3cc(C(=O)O)cn3)nc(O)c21` (stereo not drawn) [Example 339] are 370 nM and 36 nM.
Taken in the same sequence, the figures for `O=C(O)c1cnn(-c2nc(O)c3c(cnn3C3CCCCCC3)n2)c1` [Example 393] were 310 nM and 41 nM.
On to `C[C@H]1CC[C@H](n2ncc3nc(-n4cc(C(=O)O)cn4)nc(O)c32)CC1` [Example 384], for which the IC50 in assay [1] amounted to 500 nM; in assay [2], 60 nM.
For `Cc1cc(C)cc(C(C)n2ncc3nc(-n4cc(C(=O)O)cn4)nc(O)c32)c1` (stereo not drawn) [Example 309], the IC50 in assay [1] turned out to be 680 nM; in assay [2], 94 nM.
Consider `O=C(O)c1cnn(-c2nc(O)c3c(cnn3C[C@H]3CCN(c4ccc(C(F)(F)F)cc4)C3)n2)c1` [Example 427], for which the figures for the IC50 in assay [1] and in assay [2] were 310 nM and 25 nM, respectively.
Taken in the same sequence, the figures for `CCC(CC)Cn1ncc2nc(-n3cc(C(=O)O)cn3)nc(O)c21` [Example 494] were 870 nM and 89 nM.
As to `O=C(O)c1cnn(-c2nc(O)c3c(cnn3[C@@H]3CCc4ccccc43)n2)c1` [Example 396], the IC50 in assay [1] stood at 340 nM; in assay [2], 47 nM.
As to `C[C@@H](c1ccc(F)c(F)c1)n1nc(C2CC2)c2nc(-n3cc(C(=O)O)cn3)nc(O)c21` [Example 459], the results for the IC50 in assay [1] and in assay [2] were 430 nM and 110 nM, respectively.
The corresponding values for `Cc1ccc(F)c(C(C)n2ncc3nc(-n4cc(C(=O)O)cn4)nc(O)c32)c1` (single isomer, unassigned) [Example 314] are 800 nM and 61 nM.
The corresponding values for `O=C(O)c1cnn(-c2nc(O)c3c(cnn3[C@H]3CCc4ccccc43)n2)c1` [Example 397] are 720 nM and 46 nM.
Taken in the same sequence, the figures for `O=C(O)c1cnn(-c2nc(O)c3c(cnn3[C@H]3CCN(c4ccc(Cl)c(Cl)c4)C3)n2)c1` [Example 438] were 140 nM and 13 nM.
For `CCC(c1ccc(Cl)c(C)c1)n1ncc2nc(-n3cc(C(=O)O)cn3)nc(O)c21` (stereo not drawn) [Example 346], the IC50 in assay [1] came to 530 nM; in assay [2], 65 nM.
Consider `CC(C)C(c1ccc(F)cc1)n1ncc2nc(-n3cc(C(=O)O)cn3)nc(O)c21` (stereo not drawn) [Example 354], for which the IC50 in assay [1] was 680 nM; in assay [2], 140 nM.
The corresponding values for `C[C@@H](C1CCC(C)(C)CC1)n1ncc2nc(-n3cc(C(=O)O)cn3)nc(O)c21` [Example 382] are 410 nM and 15 nM.
Taken in the same sequence, the figures for `CC(c1ccc(N2CCC(C(F)(F)F)CC2)cc1)n1ncc2nc(-n3cc(C(=O)O)cn3)nc(O)c21` (racemic) [Example 423] were 740 nM and 31 nM.
As to `Cc1cc(C(C2CC2)n2ncc3nc(-n4cc(C(=O)O)cn4)nc(O)c32)ccc1F` (stereo not drawn) [Example 376], the IC50 in assay [1] stood at 770 nM; in assay [2], 72 nM.
The corresponding values for `CC(C)C[C@H](C)n1ncc2nc(-n3cc(C(=O)O)cn3)nc(O)c21` [Example 496] are 530 nM and 41 nM.
The corresponding values for `Cc1ccc(C(C)n2ncc3nc(-n4cc(C(=O)O)cn4)nc(O)c32)cc1` (single isomer, unassigned) [Example 292] are 590 nM and 39 nM.
The corresponding values for `CCC1CCCC(n2ncc3nc(-n4cc(C(=O)O)cn4)nc(O)c32)C1` (stereo not drawn) [Example 415] are 690 nM and 40 nM.
